ChEMBL document CHEMBL5291721, “A preclinical secondary pharmacology resource illuminates target-adverse drug reaction associations of marketed drugs” (Nat Commun, 2023)

What was measured:
[1] = target: 5-hydroxytryptamine receptor 2A (Homo sapiens, UniProt P28223); format: functional, cell-based
Mu-type opioid receptor = Mu-type opioid receptor (Homo sapiens, UniProt P35372); experiment: biochemical; format: functional
D(1A) dopamine receptor = D(1A) dopamine receptor (Homo sapiens, UniProt P21728); format: functional, cell-based
[2] = target: T1, Muscarinic acetylcholine receptor M2 (Homo sapiens, UniProt P08172); format: functional, cell-based
T1 sequence (P08172 whole entry): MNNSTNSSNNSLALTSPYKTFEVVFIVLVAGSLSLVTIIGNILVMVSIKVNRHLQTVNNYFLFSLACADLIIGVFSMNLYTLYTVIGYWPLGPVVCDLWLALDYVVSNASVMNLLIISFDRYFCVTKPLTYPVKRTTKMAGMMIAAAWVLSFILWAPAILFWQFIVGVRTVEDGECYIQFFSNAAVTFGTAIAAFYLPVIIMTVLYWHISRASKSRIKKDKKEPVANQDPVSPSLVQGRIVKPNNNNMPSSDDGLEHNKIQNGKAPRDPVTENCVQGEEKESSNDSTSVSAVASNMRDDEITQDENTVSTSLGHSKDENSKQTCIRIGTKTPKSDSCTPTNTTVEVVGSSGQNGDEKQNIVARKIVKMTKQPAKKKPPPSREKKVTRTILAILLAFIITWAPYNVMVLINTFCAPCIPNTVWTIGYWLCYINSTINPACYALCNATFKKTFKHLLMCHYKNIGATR

[3] = target: 5-hydroxytryptamine receptor 2B (Homo sapiens, UniProt P41595); format: functional, cell-based
[4] = target: T2, Amine oxidase [flavin-containing] A (Homo sapiens, UniProt P21397); format: functional
T2 sequence (P21397 whole entry): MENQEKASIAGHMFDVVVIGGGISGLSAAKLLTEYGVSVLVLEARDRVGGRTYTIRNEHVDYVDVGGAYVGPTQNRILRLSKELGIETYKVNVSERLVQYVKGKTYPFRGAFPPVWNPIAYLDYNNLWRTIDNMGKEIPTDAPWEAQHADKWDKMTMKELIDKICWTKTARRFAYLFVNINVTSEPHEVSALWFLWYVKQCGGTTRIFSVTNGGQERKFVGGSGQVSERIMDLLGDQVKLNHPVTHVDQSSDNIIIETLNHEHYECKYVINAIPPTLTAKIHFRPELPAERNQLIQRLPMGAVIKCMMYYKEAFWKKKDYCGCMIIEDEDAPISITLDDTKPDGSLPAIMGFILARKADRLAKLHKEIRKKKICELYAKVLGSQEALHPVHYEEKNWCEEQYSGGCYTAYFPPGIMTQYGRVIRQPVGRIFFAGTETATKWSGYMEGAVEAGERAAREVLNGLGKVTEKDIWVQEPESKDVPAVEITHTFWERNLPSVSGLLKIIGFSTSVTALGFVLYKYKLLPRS

[5] = target: Delta-type opioid receptor (Homo sapiens, UniProt P41143)
[6] = target: Gamma-aminobutyric acid receptor subunit alpha-1 (Rattus norvegicus, UniProt P62813)
[7] = target: T3, 5-hydroxytryptamine receptor 2C (Homo sapiens, UniProt P28335)
T3 sequence (P28335 whole entry): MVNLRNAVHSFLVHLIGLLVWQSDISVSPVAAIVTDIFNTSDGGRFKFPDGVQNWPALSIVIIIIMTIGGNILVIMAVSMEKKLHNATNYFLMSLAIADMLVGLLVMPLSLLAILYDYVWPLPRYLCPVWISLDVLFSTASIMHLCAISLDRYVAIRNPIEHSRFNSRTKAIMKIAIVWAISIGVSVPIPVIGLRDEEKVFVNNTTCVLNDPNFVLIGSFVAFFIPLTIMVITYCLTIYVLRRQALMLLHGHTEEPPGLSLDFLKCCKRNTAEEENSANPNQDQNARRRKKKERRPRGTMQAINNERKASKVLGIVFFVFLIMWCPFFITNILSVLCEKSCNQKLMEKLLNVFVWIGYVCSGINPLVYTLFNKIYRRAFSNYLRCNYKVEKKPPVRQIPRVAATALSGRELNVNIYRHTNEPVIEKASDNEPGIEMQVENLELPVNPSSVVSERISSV

Melanocortin receptor 4 = Melanocortin receptor 4 (Homo sapiens, UniProt P32245)
[8] = target: T4, 5-hydroxytryptamine receptor 1A (Homo sapiens, UniProt P08908); format: functional, cell-based
T4 sequence (P08908 whole entry): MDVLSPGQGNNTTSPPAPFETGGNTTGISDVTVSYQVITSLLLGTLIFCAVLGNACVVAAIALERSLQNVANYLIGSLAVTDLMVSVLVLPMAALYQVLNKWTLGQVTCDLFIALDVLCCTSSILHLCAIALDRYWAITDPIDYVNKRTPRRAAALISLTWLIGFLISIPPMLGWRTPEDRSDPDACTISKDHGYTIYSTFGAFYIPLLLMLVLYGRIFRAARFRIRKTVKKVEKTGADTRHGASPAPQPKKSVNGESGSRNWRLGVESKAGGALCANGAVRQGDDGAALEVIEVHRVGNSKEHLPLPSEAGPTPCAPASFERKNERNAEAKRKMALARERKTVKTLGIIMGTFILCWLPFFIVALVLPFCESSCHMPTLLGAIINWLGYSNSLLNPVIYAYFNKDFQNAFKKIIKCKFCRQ

[9] = target: T2, Amine oxidase [flavin-containing] A; format: functional; remark: listed apart in the source
[10] = target: T1, Muscarinic acetylcholine receptor M2
[11] = target: Sodium-dependent dopamine transporter (Homo sapiens, UniProt Q01959)
Further: assay procedure not described here.

Chain of Mu-type opioid receptor (P35372 whole entry): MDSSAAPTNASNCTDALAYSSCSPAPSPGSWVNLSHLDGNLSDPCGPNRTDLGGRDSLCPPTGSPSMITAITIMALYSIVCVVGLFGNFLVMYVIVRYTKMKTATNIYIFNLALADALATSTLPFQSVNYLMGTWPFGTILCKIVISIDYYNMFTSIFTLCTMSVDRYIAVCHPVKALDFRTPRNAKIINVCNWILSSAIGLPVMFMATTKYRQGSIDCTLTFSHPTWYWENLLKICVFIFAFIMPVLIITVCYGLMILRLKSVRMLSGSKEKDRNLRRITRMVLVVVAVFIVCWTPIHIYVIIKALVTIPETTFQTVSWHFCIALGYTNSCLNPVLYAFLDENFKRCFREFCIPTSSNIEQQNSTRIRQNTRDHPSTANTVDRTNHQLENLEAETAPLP
Chain of D(1A) dopamine receptor (P21728 whole entry): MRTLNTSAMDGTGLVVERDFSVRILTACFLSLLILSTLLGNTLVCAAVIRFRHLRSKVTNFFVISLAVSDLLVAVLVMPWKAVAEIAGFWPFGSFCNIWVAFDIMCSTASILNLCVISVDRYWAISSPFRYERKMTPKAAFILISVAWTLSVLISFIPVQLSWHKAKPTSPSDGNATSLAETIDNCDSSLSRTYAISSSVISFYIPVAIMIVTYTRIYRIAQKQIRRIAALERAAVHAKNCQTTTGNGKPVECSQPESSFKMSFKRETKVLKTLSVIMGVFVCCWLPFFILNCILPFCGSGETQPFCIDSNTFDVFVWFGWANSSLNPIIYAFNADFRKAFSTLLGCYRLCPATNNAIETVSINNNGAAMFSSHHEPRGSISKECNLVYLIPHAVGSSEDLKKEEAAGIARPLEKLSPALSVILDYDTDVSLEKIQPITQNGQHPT
Chain of Sodium-dependent dopamine transporter (Q01959 whole entry): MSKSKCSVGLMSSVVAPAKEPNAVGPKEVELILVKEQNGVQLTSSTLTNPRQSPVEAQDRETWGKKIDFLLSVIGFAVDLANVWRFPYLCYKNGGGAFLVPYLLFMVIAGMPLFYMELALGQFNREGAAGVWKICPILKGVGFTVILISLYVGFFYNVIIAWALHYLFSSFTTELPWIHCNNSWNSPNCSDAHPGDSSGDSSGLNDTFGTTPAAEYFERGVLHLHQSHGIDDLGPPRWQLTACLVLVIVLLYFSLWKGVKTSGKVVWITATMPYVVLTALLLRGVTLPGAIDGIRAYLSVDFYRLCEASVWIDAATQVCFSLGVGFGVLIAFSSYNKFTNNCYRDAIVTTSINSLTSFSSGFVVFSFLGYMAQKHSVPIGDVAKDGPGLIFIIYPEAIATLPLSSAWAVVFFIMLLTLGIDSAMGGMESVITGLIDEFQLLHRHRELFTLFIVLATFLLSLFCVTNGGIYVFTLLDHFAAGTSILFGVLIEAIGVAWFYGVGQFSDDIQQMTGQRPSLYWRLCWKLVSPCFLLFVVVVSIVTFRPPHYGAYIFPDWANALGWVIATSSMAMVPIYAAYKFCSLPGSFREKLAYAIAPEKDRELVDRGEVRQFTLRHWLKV
Chain of 5-hydroxytryptamine receptor 2A (P28223 whole entry): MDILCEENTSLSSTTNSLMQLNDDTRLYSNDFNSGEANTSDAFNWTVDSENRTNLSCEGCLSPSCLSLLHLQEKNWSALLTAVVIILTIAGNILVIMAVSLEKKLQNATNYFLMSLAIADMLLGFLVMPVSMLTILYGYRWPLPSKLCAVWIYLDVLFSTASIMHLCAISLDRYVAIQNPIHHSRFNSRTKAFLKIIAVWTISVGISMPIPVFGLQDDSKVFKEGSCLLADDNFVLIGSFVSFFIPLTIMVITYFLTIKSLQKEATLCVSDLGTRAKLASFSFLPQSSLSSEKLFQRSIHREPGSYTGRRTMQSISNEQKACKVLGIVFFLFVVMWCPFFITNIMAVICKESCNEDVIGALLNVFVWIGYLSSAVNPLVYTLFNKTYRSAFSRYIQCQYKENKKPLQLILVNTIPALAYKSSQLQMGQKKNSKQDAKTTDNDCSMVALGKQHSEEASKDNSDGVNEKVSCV
Chain of 5-hydroxytryptamine receptor 2B (P41595 whole entry): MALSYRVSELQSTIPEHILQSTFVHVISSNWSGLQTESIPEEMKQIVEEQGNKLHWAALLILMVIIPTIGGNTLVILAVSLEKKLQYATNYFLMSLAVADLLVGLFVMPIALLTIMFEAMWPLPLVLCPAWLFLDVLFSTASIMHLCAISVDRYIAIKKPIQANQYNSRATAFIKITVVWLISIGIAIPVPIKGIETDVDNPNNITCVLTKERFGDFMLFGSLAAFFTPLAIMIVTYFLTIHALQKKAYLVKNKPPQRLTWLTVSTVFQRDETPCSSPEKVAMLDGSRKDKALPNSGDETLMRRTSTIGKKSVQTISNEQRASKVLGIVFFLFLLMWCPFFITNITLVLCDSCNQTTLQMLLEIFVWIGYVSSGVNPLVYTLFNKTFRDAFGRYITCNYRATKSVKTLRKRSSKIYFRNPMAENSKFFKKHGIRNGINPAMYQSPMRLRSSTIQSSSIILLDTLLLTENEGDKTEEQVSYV
Chain of Melanocortin receptor 4 (P32245 whole entry): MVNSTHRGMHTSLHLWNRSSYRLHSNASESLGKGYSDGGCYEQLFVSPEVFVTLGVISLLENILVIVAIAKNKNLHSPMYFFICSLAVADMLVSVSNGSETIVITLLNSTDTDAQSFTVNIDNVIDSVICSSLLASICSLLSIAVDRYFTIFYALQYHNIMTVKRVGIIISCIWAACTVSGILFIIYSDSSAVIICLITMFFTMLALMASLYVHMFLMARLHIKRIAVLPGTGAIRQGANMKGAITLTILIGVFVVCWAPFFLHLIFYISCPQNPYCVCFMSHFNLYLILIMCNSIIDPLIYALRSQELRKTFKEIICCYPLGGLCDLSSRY
Chain of Delta-type opioid receptor (P41143 whole entry): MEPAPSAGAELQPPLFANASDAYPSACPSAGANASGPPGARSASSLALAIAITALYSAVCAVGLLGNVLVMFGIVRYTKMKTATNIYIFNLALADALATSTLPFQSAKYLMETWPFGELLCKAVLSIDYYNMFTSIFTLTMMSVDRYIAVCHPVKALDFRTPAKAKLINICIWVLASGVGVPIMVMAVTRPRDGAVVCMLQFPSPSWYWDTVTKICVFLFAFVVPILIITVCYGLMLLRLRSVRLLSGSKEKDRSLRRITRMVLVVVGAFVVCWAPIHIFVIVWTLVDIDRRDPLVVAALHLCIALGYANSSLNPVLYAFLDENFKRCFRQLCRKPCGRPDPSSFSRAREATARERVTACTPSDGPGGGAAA
Chain of Gamma-aminobutyric acid receptor subunit alpha-1 (P62813 whole entry): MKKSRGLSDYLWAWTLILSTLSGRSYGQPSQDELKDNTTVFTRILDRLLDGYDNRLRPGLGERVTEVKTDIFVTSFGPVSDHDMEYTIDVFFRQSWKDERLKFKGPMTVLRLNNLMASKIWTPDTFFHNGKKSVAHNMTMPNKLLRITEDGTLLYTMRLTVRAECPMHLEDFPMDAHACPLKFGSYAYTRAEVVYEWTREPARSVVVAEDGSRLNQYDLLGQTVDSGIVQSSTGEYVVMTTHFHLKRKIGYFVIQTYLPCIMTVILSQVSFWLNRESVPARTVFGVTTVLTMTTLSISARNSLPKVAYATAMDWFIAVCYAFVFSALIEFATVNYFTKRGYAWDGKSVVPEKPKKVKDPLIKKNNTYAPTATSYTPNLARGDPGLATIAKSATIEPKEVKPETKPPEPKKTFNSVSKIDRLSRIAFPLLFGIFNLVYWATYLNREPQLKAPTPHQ

Row | Compound | AC50 [1] [µM] | AC50 (Mu-type opioid receptor) [µM] | AC50 (D(1A) dopamine receptor) [µM] | AC50 [2] [µM] | AC50 [3] [µM] | AC50 [4] [µM] | AC50 [5] [µM] | AC50 [6] [µM] | AC50 [7] [µM] | AC50 (Melanocortin receptor 4) [µM] | AC50 [8] [µM] | AC50 [9] [µM] | AC50 [10] [µM] | AC50 [11] [µM]
1 | COC(=O)N[C@H](C(=O)N1CCC[C@H]1c1nc(-c2ccc(-c3ccc(-c4c[nH]c([C@@H]5CCCN5C(=O)[C@@H](NC(=O)OC)C(C)C)n4)cc3)cc2)c[nH]1)C(C)C | > 30 | > 30 | > 30 | > 30 | > 30 | > 30 | > 30 | > 30 | > 30 | – | – | – | – | –
2 | CC(N)Cc1ccccc1 (configuration not stated) [AMPHETAMINE] | > 30 | – | – | > 30 | > 30 | > 30 | > 30 | > 10 | > 30 | > 30 | > 30 | – | – | –
3 | COC(=O)N[C@H](C(=O)N[C@@H](Cc1ccccc1)[C@@H](O)CN(Cc1ccc(-c2ccccn2)cc1)NC(=O)[C@@H](NC(=O)OC)C(C)(C)C)C(C)(C)C [ATAZANAVIR] | > 10 | – | > 10 | > 10 | > 10 | > 10 | > 30 | > 10 | > 30 | > 30 | > 10 | – | – | –
4 | COc1cc(Nc2c(C#N)cnc3cc(OCCCN4CCN(C)CC4)c(OC)cc23)c(Cl)cc1Cl [BOSUTINIB] | – | – | – | – | – | – | > 10 | – | 7 | 17.7 | – | > 30 | 4.94 | 7.55
5 | CN(C)CCCN1c2ccccc2CCc2ccc(Cl)cc21 [CLOMIPRAMINE] | – | – | – | > 10 | 5.6 | > 10 | > 30 | > 10 | 0.53 | – | – | > 30 | 0.451 | 4.82
6 | O=C(O)c1cc(-c2ccc(F)cc2F)ccc1O [DIFLUNISAL] | – | > 30 | > 30 | > 10 | > 10 | > 10 | > 30 | > 10 | > 30 | > 10 | > 10 | – | – | –
7 | CCC(=O)O[C@H]1[C@H](O[C@@H]2[C@@H](C)[C@H](O[C@H]3C[C@@](C)(OC)[C@@H](O)[C@H](C)O3)[C@@H](C)C(=O)O[C@H](CC)[C@@](C)(O)[C@H](O)[C@@H](C)C(=O)[C@H](C)C[C@@]2(C)O)O[C@H](C)C[C@@H]1N(C)C [ERYTHROMYCIN PROPIONATE] | – | – | – | – | – | – | – | – | – | – | – | > 30 | > 30 | 29.1
8 | C#C[C@]1(O)CC[C@H]2[C@@H]3CCc4cc(O)ccc4[C@H]3CC[C@@]21C [ETHINYL ESTRADIOL] | – | – | > 10 | > 10 | 18 | > 10 | > 30 | > 10 | > 30 | > 30 | – | > 30 | > 30 | 0.8
9 | C[C@@H]1O[C@@H]1P(=O)(O)O [FOSFOMYCIN] | > 10 | – | > 10 | > 10 | > 10 | > 10 | > 30 | > 10 | > 30 | > 10 | > 10 | – | – | –
10 | COc1ccc2c(c1)C(=O)N(CCc1ccc(S(=O)(=O)NC(=O)NC3CCCCC3)cc1)C(=O)C2(C)C [GLIQUIDONE] | > 30 | > 30 | > 30 | > 30 | > 30 | > 30 | > 30 | > 30 | > 30 | – | – | – | – | –
11 | NS(=O)(=O)c1cc2c(cc1Cl)NCNS2(=O)=O [HYDROCHLOROTHIAZIDE] | – | – | > 10 | > 10 | > 10 | > 10 | > 10 | > 10 | > 10 | > 30 | > 10 | – | – | –
12 | NC[C@H]1O[C@H](O[C@H]2[C@H](O)[C@@H](O[C@H]3O[C@H](CO)[C@@H](O)[C@H](N)[C@H]3O)[C@H](N)C[C@@H]2N)[C@H](O)[C@@H](O)[C@@H]1O [KANAMYCIN] | – | > 30 | > 30 | > 10 | > 10 | > 30 | > 30 | > 10 | > 30 | > 10 | > 10 | – | – | –
13 | CC(C)(C(=O)c1cccnc1)c1cccnc1 [METYRAPONE] | – | – | > 10 | > 10 | > 10 | > 10 | > 30 | > 10 | > 30 | > 10 | > 10 | – | – | –
14 | CCc1nn(CCCN2CCN(c3cccc(Cl)c3)CC2)c(=O)n1CCOc1ccccc1 [NEFAZODONE] | – | 7.6 | – | – | 1.1 | > 10 | > 10 | > 10 | – | > 30 | – | – | – | –
15 | Cc1cc2c(cc1CC(=O)c1sccc1S(=O)(=O)Nc1onc(C)c1Cl)OCO2 [SITAXENTAN] | – | – | – | – | – | – | – | – | – | – | – | > 30 | > 30 | > 30
16 | CNC(=O)c1cc(Oc2ccc(NC(=O)Nc3ccc(Cl)c(C(F)(F)F)c3)cc2)ccn1 [SORAFENIB] | – | > 30 | > 30 | > 30 | – | 8.26 | > 30 | > 30 | > 30 | – | – | – | – | –
17 | CC(C(=O)O)c1ccc(C(=O)c2cccs2)cc1 (configuration not stated) [SUPROFEN] | > 10 | – | > 10 | > 10 | > 10 | > 10 | > 30 | > 10 | > 30 | > 10 | > 10 | – | – | –
18 | Cc1ccc(C(=O)c2cc(O)c(O)c([N+](=O)[O-])c2)cc1 [TOLCAPONE] | > 10 | – | > 10 | > 10 | > 10 | > 10 | > 30 | > 10 | > 10 | > 10 | 5.6 | – | – | –
19 | CCCS(=O)(=O)Nc1ccc(F)c(C(=O)c2c[nH]c3ncc(-c4ccc(Cl)cc4)cc23)c1F [VEMURAFENIB] | > 30 | > 30 | > 30 | > 30 | > 30 | > 30 | > 30 | > 30 | > 30 | – | – | – | – | –
20 | OCc1cc([C@@H](O)CNCCCCCCOCCOCc2c(Cl)cccc2Cl)ccc1O [VILANTEROL] | > 30 | – | 2.2 | > 30 | > 30 | > 30 | > 30 | – | > 30 | – | > 30 | – | – | –
